Test results taken from patent US20230148599A1, “FUNGICIDAL MIXTURES CONTAINING PYRAZOLE DERIVATIVES” (FMC Corporation, priority 2020, published 2023).

Key:
Assay type in all cases: in vivo
Conditions in all cases: 50 ppm, 100 = 100% disease control, 0 = no control
Alternaria solani = assay: Test F: tomato early blight, preventive spray on tomato seedlings
Method in brief: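 Preventive test: one day after the compound spray, seedlings were inoculated with A. solani, incubated saturated at 27 °C for 48 h, then kept at 20 °C for 3 days. Test suspensions contained acetone/water 50/50 with 250 ppm PEG400 surfactant. Visual ratings run from 0 (no control) to 100 (full control).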

[1] = system: Blumeria graminis f. sp. tritici; assay: Test C: wheat powdery mildew, preventive spray on wheat seedlings
Method in brief: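 Preventive test: inoculation with spore dust came one day after spraying seedlings to run-off with ppm suspensions in acetone/water (50/50) plus 250 ppm PEG400 surfactant. Visual ratings after 8 days' incubation at 20° C give percent disease control relative to controls.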

Botrytis cinerea = assay: Test E: tomato Botrytis, preventive spray on tomato seedlings
Method in brief: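 Preventive test: seedlings sprayed to run-off with compound in acetone/water (50/50) plus 250 ppm PEG400, inoculated one day later with B. cinerea spores. Held 48 h saturated at 20° C, then 3 days at 24° C; disease control scored visually from 0 to 100 versus controls.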

Septoria tritici = assay: Test A: wheat leaf blotch, preventive spray on wheat seedlings
Method in brief: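 Preventive test: one day after spraying seedlings to run-off (concentrations in ppm; acetone/water, 250 ppm PEG400), Septoria tritici spores applied. Scored after 48 h humid incubation at 24 °C plus 17 days at 20 °C, as percent disease control versus untreated controls (100 = full control).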

Phakopsora pachyrhizi = assay: Test D: Asian soybean rust, preventive spray on soybean seedlings
Method in brief: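 Compounds in acetone/water (50/50) with 250 ppm PEG400, dosed in ppm, sprayed to run-off on soybean seedlings; inoculated with P. pachyrhizi spores next day. Held 24 h at 22 °C in saturated air, then 8 days at 22 °C; visual rating of disease control, 0–100, relative to untreated controls.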

[2] = system: Puccinia recondita f. sp. tritici; assay: Test B: wheat leaf rust, preventive spray on wheat seedlings
Method in brief: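 Preventive test: compound in acetone/water 50/50 with 250 ppm PEG400 was sprayed onto wheat seedlings one day before inoculation with leaf rust spores. After 24 h in saturated air and 7 days in a growth chamber, both at 20 °C, disease control was scored from 0 to 100 against controls.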

Compound: COc1ccc(Nc2c(-c3c(F)cc(F)cc3F)c(C)nn2C)c([N+](=O)[O-])c1 [compound 159]
- Test F disease control rating (Alternaria solani): 99%
- Test C disease control rating [1]: 100%
- Test E disease control rating (Botrytis cinerea): 99%
- Test A disease control rating (Septoria tritici): 100%
- Test D disease control rating (Phakopsora pachyrhizi): 13%
- Test B disease control rating [2]: 100%

Compound: Cc1nn(C)c(Nc2ccccc2[N+](=O)[O-])c1-c1ccc(F)cc1Br [compound 139]
- Test F disease control rating (Alternaria solani): 33%
- Test C disease control rating [1]: 76%
- Test E disease control rating (Botrytis cinerea): 100%
- Test A disease control rating (Septoria tritici): 98%
- Test D disease control rating (Phakopsora pachyrhizi): 0%
- Test B disease control rating [2]: 86%

Compound: COc1ccc(Nc2c(-c3ccc(Cl)cc3Cl)c(C)nn2C)c([N+](=O)[O-])c1 [compound 142]
- Test F disease control rating (Alternaria solani): 80%
- Test C disease control rating [1]: 39%
- Test E disease control rating (Botrytis cinerea): 99%
- Test A disease control rating (Septoria tritici): 100%
- Test D disease control rating (Phakopsora pachyrhizi): 25%
- Test B disease control rating [2]: 91%

Compound: Cc1nn(C)c(Nc2cc(Cl)ccc2[N+](=O)[O-])c1-c1ccc(F)cc1Cl [compound 130]
- Test F disease control rating (Alternaria solani): 0%
- Test C disease control rating [1]: 20%
- Test E disease control rating (Botrytis cinerea): 85%
- Test A disease control rating (Septoria tritici): 85%
- Test D disease control rating (Phakopsora pachyrhizi): 0%
- Test B disease control rating [2]: 86%

Compound: Cc1nn(C)c(Nc2c(F)cc(Cl)cc2[N+](=O)[O-])c1-c1ccc(Cl)cc1Cl [compound 11]
- Test F disease control rating (Alternaria solani): 99%
- Test C disease control rating [1]: 97%
- Test E disease control rating (Botrytis cinerea): 98%
- Test A disease control rating (Septoria tritici): 100%
- Test D disease control rating (Phakopsora pachyrhizi): 0%
- Test B disease control rating [2]: 98%

Compound: CCc1nn(C)c(Nc2c(F)cc(C)cc2[N+](=O)[O-])c1-c1ccc(F)cc1F [compound 185]
- Test F disease control rating (Alternaria solani): 99%
- Test C disease control rating [1]: 99%
- Test E disease control rating (Botrytis cinerea): 96%
- Test A disease control rating (Septoria tritici): 100%
- Test D disease control rating (Phakopsora pachyrhizi): 0%
- Test B disease control rating [2]: 100%

Compound: Cc1nn(C)c(Nc2ccc(Cl)cc2[N+](=O)[O-])c1-c1ccc(F)cc1Cl [compound 92]
- Test F disease control rating (Alternaria solani): 79%
- Test C disease control rating [1]: 89%
- Test E disease control rating (Botrytis cinerea): 100%
- Test A disease control rating (Septoria tritici): 100%
- Test D disease control rating (Phakopsora pachyrhizi): 0%
- Test B disease control rating [2]: 96%

Compound: Cc1cc(F)c(Nc2c(-c3c(F)cc(C#N)cc3F)c(C)nn2C)c([N+](=O)[O-])c1 [compound 200]
- Test F disease control rating (Alternaria solani): 100%
- Test C disease control rating [1]: 99%
- Test E disease control rating (Botrytis cinerea): 98%
- Test A disease control rating (Septoria tritici): 99%
- Test D disease control rating (Phakopsora pachyrhizi): 100%
- Test B disease control rating [2]: 100%

Compound: Cc1cc(Cl)c(Nc2c(-c3ccc(F)cc3Br)c(C)nn2C)c([N+](=O)[O-])c1 [compound 181]
- Test F disease control rating (Alternaria solani): 99%
- Test C disease control rating [1]: 99%
- Test E disease control rating (Botrytis cinerea): 99%
- Test A disease control rating (Septoria tritici): 100%
- Test D disease control rating (Phakopsora pachyrhizi): 78%
- Test B disease control rating [2]: 100%

Compound: COc1ccc(-c2c(C)nn(C)c2Nc2c(F)cccc2[N+](=O)[O-])c(C)c1 [compound 48]
- Test F disease control rating (Alternaria solani): 97%
- Test C disease control rating [1]: 89%
- Test E disease control rating (Botrytis cinerea): 97%
- Test A disease control rating (Septoria tritici): 100%
- Test D disease control rating (Phakopsora pachyrhizi): 0%
- Test B disease control rating [2]: 95%

Compound: COc1ccc(-c2c(C)nn(C)c2Nc2ccc(OC)cc2[N+](=O)[O-])c(Cl)c1 [compound 187]
- Test F disease control rating (Alternaria solani): 100%
- Test C disease control rating [1]: 91%
- Test E disease control rating (Botrytis cinerea): 100%
- Test A disease control rating (Septoria tritici): 99%
- Test D disease control rating (Phakopsora pachyrhizi): 0%
- Test B disease control rating [2]: 100%

Compound: Cc1nn(C)c(Nc2c([N+](=O)[O-])ccc(F)c2F)c1-c1ccc(F)cc1Cl [compound 7]
- Test F disease control rating (Alternaria solani): 89%
- Test C disease control rating [1]: 94%
- Test E disease control rating (Botrytis cinerea): 99%
- Test A disease control rating (Septoria tritici): 100%
- Test D disease control rating (Phakopsora pachyrhizi): 96%
- Test B disease control rating [2]: 99%

Compound: Cc1nn(C)c(Nc2ccccc2[N+](=O)[O-])c1-c1ccc(F)cc1Cl [compound 126]
- Test F disease control rating (Alternaria solani): 68%
- Test C disease control rating [1]: 96%
- Test E disease control rating (Botrytis cinerea): 100%
- Test A disease control rating (Septoria tritici): 98%
- Test D disease control rating (Phakopsora pachyrhizi): 0%
- Test B disease control rating [2]: 85%

Compound: Cc1nn(C)c(Nc2c(Cl)cc(Cl)cc2[N+](=O)[O-])c1-c1ccc(C#N)cc1Cl [compound 116]
- Test F disease control rating (Alternaria solani): 82%
- Test C disease control rating [1]: 56%
- Test E disease control rating (Botrytis cinerea): 63%
- Test A disease control rating (Septoria tritici): 99%
- Test D disease control rating (Phakopsora pachyrhizi): 0%
- Test B disease control rating [2]: 99%

Compound: Cc1nn(C)c(Nc2ccccc2[N+](=O)[O-])c1-c1c(F)cccc1F [compound 135]
- Test F disease control rating (Alternaria solani): 0%
- Test C disease control rating [1]: 93%
- Test E disease control rating (Botrytis cinerea): 99%
- Test A disease control rating (Septoria tritici): 100%
- Test D disease control rating (Phakopsora pachyrhizi): 0%
- Test B disease control rating [2]: 68%

Compound: Cc1nn(C)c(Nc2ccccc2[N+](=O)[O-])c1-c1ccc(C#N)cc1F [compound 134]
- Test F disease control rating (Alternaria solani): 0%
- Test C disease control rating [1]: 71%
- Test E disease control rating (Botrytis cinerea): 70%
- Test A disease control rating (Septoria tritici): 100%
- Test D disease control rating (Phakopsora pachyrhizi): 0%
- Test B disease control rating [2]: 23%

Compound: Cc1nn(C)c(Nc2c(Cl)cccc2[N+](=O)[O-])c1-c1ccc(C#N)cc1Cl [compound 123]
- Test F disease control rating (Alternaria solani): 66%
- Test C disease control rating [1]: 81%
- Test E disease control rating (Botrytis cinerea): 100%
- Test A disease control rating (Septoria tritici): 100%
- Test D disease control rating (Phakopsora pachyrhizi): 0%
- Test B disease control rating [2]: 97%

Compound: COc1ccc(-c2c(C)nn(C)c2Nc2c(F)cc(F)cc2[N+](=O)[O-])c(Cl)c1 [compound 64]
- Test F disease control rating (Alternaria solani): 99%
- Test C disease control rating [1]: 98%
- Test E disease control rating (Botrytis cinerea): 98%
- Test A disease control rating (Septoria tritici): 100%
- Test D disease control rating (Phakopsora pachyrhizi): 97%
- Test B disease control rating [2]: 100%

Compound: Cc1nn(C)c(Nc2ccccc2[N+](=O)[O-])c1-c1ccc(Cl)cc1Cl [compound 189]
- Test F disease control rating (Alternaria solani): 0%
- Test C disease control rating [1]: 57%
- Test E disease control rating (Botrytis cinerea): 99%
- Test A disease control rating (Septoria tritici): 99%
- Test D disease control rating (Phakopsora pachyrhizi): 0%
- Test B disease control rating [2]: 68%

Compound: Cc1nn(C)c(Nc2c(Cl)cccc2[N+](=O)[O-])c1-c1c(F)cc(F)cc1Cl [compound 152]
- Test F disease control rating (Alternaria solani): 92%
- Test C disease control rating [1]: 98%
- Test E disease control rating (Botrytis cinerea): 99%
- Test A disease control rating (Septoria tritici): 99%
- Test D disease control rating (Phakopsora pachyrhizi): 91%
- Test B disease control rating [2]: 100%

Compound: Cc1nn(C)c(Nc2c(Cl)cccc2[N+](=O)[O-])c1-c1c(F)cc(F)cc1Br [compound 163]
- Test F disease control rating (Alternaria solani): 76%
- Test C disease control rating [1]: 98%
- Test E disease control rating (Botrytis cinerea): 88%
- Test A disease control rating (Septoria tritici): 99%
- Test D disease control rating (Phakopsora pachyrhizi): 78%
- Test B disease control rating [2]: 100%

Compound: Cc1nn(C)c(Nc2c(Cl)cc(F)cc2[N+](=O)[O-])c1-c1ccc(F)cc1Br [compound 43]
- Test F disease control rating (Alternaria solani): 64%
- Test C disease control rating [1]: 97%
- Test E disease control rating (Botrytis cinerea): 96%
- Test A disease control rating (Septoria tritici): 100%
- Test D disease control rating (Phakopsora pachyrhizi): 65%
- Test B disease control rating [2]: 100%

Compound: COc1ccc(Nc2c(-c3c(F)cccc3Cl)c(C)nn2C)c([N+](=O)[O-])c1 [compound 197]
- Test F disease control rating (Alternaria solani): 98%
- Test C disease control rating [1]: 93%
- Test E disease control rating (Botrytis cinerea): 98%
- Test A disease control rating (Septoria tritici): 100%
- Test D disease control rating (Phakopsora pachyrhizi): 0%
- Test B disease control rating [2]: 99%

Compound: COc1cc(F)c(Nc2c(-c3ccc(Cl)cc3Cl)c(C)nn2C)c([N+](=O)[O-])c1 [compound 138]
- Test F disease control rating (Alternaria solani): 100%
- Test C disease control rating [1]: 93%
- Test E disease control rating (Botrytis cinerea): 99%
- Test A disease control rating (Septoria tritici): 100%
- Test D disease control rating (Phakopsora pachyrhizi): 67%
- Test B disease control rating [2]: 100%

Compound: Cc1nn(C)c(Nc2ccc(F)cc2[N+](=O)[O-])c1-c1c(Cl)cccc1Cl [compound 54]
- Test F disease control rating (Alternaria solani): 0%
- Test C disease control rating [1]: 93%
- Test E disease control rating (Botrytis cinerea): 21%
- Test A disease control rating (Septoria tritici): 100%
- Test D disease control rating (Phakopsora pachyrhizi): 0%
- Test B disease control rating [2]: 91%

Compound: Cc1nn(C)c(Nc2c(F)cc(F)cc2[N+](=O)[O-])c1-c1ccc(F)cc1F [compound 58]
- Test F disease control rating (Alternaria solani): 99%
- Test C disease control rating [1]: 99%
- Test E disease control rating (Botrytis cinerea): 99%
- Test A disease control rating (Septoria tritici): 100%
- Test D disease control rating (Phakopsora pachyrhizi): 36%
- Test B disease control rating [2]: 100%
